Measured values as given in paper PMC10927086, “Effects of structurally distinct human HDAC6 and HDAC6/HDAC8 inhibitors against S. mansoni larval and adult worm stages” (PLOS Neglected Tropical Diseases, 2024).

Tests used:
[1] = test system: S. mansoni newly transformed schistosoma (NTS); assay: ATP-based luminescence (CellTiter-GLO) viability assay on NTS; assay type: cell-based
Procedure: Fig 3 Schistosome viability assays. Panel A: Representative dose-response curves of the inhibitors on NTS. The y-axis indicates the percentage of viability normalized against DMSO (100%) and gambogic acid 10 μM (0%). […] Panel B: dose-response curve of the inhibitors on adult schistosome worm pairs. DMSO (vehicle) was used as negative control (100% viability), the indicated compounds were assayed at 5 (full triangle) 10 (inverted full triangle), 20 (full square) and 50 μM (full circle). Data are expressed as a % severity score (viability) relative to DMSO. Each point represents the average ± standard deviation of three independent experiments.

[2] = test system: tubulin of S. mansoni adult worm pairs; assay: Western blot, tubulin acetylation in adult worm pairs; assay type: cell-based, Schistosoma mansoni; conditions: 48 h and 72 h, partially lethal and sub-lethal doses
Procedure: Ten adult pairs were treated with selected HDAC inhibitors for 48 h or 72 h at partially lethal and sublethal concentrations. Compound concentrations were selected based on the viability curve, Trichostatin A (TSA), a pan-HDAC inhibitor, and NF2503 a SmHDAC8 inhibitor chemically characterized by the presence of a hydroxamate-based MBG (metal binding group) coupled to a tricyclic thieno[3,2-b]indole core as capping group, previously described were used as positive controls in the experiments; DMSO (vehicle) was the negative control. Parasites were processed as previously described and samples were analyzed by 15% SDS-PAGE, and immunoblotting was performed using α-tubulin DM1A (1:5000), α-acetylated-lysine (1:4000) and α-acetylated tubulin (1:3000) antibodies. A Chemidoc XRS Bio-Rad with a chemiluminescent camera and Bio-Rad ImageLab 4.0 software were used for the acquisition and analysis of images. Each Western blot analysis was calibrated by Ponceau staining.
TSA, a known pan- class I and class II HDAC -inhibitor, and NF2503, a HDAC inhibitor previously shown to impact histone acetylation in adult worm pairs were used as positive controls.
Fig 6 Effects of selected compounds on histones and tubulin acetylation. […]

SmHDAC8 = target: T1, SmHDAC8 (Schistosoma mansoni, UniProt A5H660); assay: Recombinant SmHDAC8 inhibition assay (Fluor de Lys); assay type: biochemical; conditions: Fluor-de-Lys substrate 50 μM, inhibitor 25-0.04 μM, average of three experiments ± SD
T1 construct: made in house; host or cells: E. coli
T1 sequence (A5H660 1-440): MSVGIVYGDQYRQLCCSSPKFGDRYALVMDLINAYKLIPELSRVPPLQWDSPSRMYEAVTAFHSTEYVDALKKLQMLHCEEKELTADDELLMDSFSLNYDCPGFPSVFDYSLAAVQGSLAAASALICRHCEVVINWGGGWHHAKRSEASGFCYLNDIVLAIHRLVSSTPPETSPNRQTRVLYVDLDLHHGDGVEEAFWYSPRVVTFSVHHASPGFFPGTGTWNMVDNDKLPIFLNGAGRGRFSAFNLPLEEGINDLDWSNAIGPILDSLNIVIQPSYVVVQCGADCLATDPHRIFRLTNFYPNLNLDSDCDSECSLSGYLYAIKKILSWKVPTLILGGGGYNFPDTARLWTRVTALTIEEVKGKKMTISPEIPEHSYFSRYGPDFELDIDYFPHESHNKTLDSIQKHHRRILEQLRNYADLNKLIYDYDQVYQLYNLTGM
Procedure: SmHDAC8 protein was produced and purified by a method previously described by us. Inhibition assays of SmHDAC8 were performed as already described in previous publications. Briefly, the commercial Fluor de Lys kit (BML-KI178) of Enzo Life Science was used for testing the residual activity of the recombinant enzyme upon preincubation with each of the selected compounds. First the enzyme was preincubated with the selected compounds 15 min before substrate addition to the mixture. The Fluor de Lys substrate was used at 50 μM. Then, compounds, substrate, and enzyme were incubated together, and the reaction was allowed to proceed for 1 h at 30°C; subsequently, 2 μM TSA within 50 μL of 1× Developer II was added, and the mixture was further incubated for 1 h at 30°C to quench the reaction. Fluorescence was measured in a plate reader (Varioskan Lux, Thermo Fisher Scientific) with excitation at λ = 370 nm and emission at λ = 450 nm.

[3] = MTT cytotoxicity assay on BJ fibroblasts; assay type: cell-based; conditions: human, BJ fibroblast cells, compounds 100-0.78 μM, GA 10-0.078 μM, 2 independent experiments
Procedure: The NCTC clone 929 (L-929) murine fibroblast isolated from subcutaneous connective tissue (ATCC-CCL-1) were cultured in Dulbecco’s Modified Eagle Medium (DMEM) supplemented with 10 mM Hepes (pH 6.98–7.30), 1 mM l-glutamine, 100 U/ml of penicillin/streptomycin (BioWhittaker, Lonza, EuroClone SpA), and heat-inactivated 10% FBS. All cells were cultured at 37°C in a 5% CO2 humidified incubator.
The MTT method was employed as previously described to determine the viability of fibroblast cell lines. Briefly, cells seeded into 96-well plates at a density of 20,000 cells/well after overnight incubation, were exposed to selected compounds at the indicated concentrations for 24–72 h. Next they were gently washed, incubated with MTT (bromuro di 3-(4,5-dimetiltiazol-2-il)-2,5-diphenyltetrazolium) for 4 h, and processed for color detection with DMSO. The resulting purple solution was spectrophotometrically measured at 570 nm using a Varioskan Lux instrument and Skanit software (Thermo Fisher Scientific).
The optical density values for both assays were expressed as a percentage of cell survival and normalized with the value of cells treated with vehicle (DMSO), and the data were analyzed using GraphPad Prism v9.5.1 software (San Diego, CA, USA).
The cytotoxicity of the hit compounds was assessed in two independent experiments on murine L929 and human BJ fibroblasts at 24 h by MTT assays. Vehicle (DMSO) and Gambogic acid (GA) were used as negative and positive control respectively. The compounds show a safe profile on both cell lines (S2 Table).
The IC50(μM) shown was calculated by dose-response curves of the compounds on murine L929 and human BJ fibroblast cells. […] The data are representative of 2 independent experiments. Gambogic acid (GA) and vehicle (DMSO) were used as positive and negative controls respectively. (DOCX)

hHDAC6 = conditions: recombinant enzyme, previously reported; ref [25]; cited from earlier work
Caco-2 cell = test system: Caco-2 cell; design: method as in earlier work; conditions: QikProp; >500 great; ref [25]; cited from earlier work
MDCK cell = test system: MDCK cell; design: method as in earlier work; conditions: QikProp; >500 great; ref [25]; cited from earlier work

Row | SMILES | LD50 on NTS, average +/- SD ([1]; 72 h, 0.7-100 μM, three experiments) [µM] | tubulin acetylation vs vehicle (DMSO) [2] | IC50 (SmHDAC8) [nM] | IC50 at 24 h [3] [µM] | IC50 (hHDAC6) [nM] | QPPCaco predicted apparent Caco-2 cell permeability (Caco-2 cell) [nm/s] | QPPMDCK predicted apparent MDCK cell permeability (MDCK cell) [nm/s] | Normalization: NTS viability normalized against DMSO (100%) and GA (0%) ([1]; log conc. (µM) 1.4, 72 h, single wells) [%]
1 | Cn1c(=O)c(OCc2ccc(C(=O)NO)cc2)c(C2CCCCC2)c2ccccc21 [NF2836] | 31.2 ± 11.3 | highest increase in tubulin acetylation | 2300 ± 800 | > 100 | 33 ± 2.6 | 264.54 | 117.53 | 
2 | CCN(CC)Cc1ccc(Cn2c(=O)c(OCc3ccc(C(=O)NO)cc3)c(-c3cccnc3)c3ccccc32)cc1 [NF2838] |  | increased acetylation | 400 ± 30 | > 100 | 11.5 ± 1.5 | 56.07 | 24.31 | 107.9
